The values below are quoted from earlier work in patent US6218102A, “Synthetic peptides and mixtures thereof for detecting HIV antibodies” (priority 1988, dated 2001).

Read-outs that look alike come from different tables or passages of the source.

The test system of the series is antibodies of patients infected by the AIDS viruses. As to conditions: cited from earlier work.

Consider “12-amino acid sequence (600-611): 12-amino acid sequence 600-611 from gp 41 (HIV-1), Gnann et al.”, for which the positive sera detected by setting is: (Center for Disease Control, Atlanta) 78 out of 79; (Gnann et al., Journal of Virology 1987) 22 out of 22. Also, under “J. Infect. Dis. 156, 1987, patients from the United States”, the HIV-1-infected patients reactive was 131 out of 132.

Regarding SGKLIC, the “immunoreactivity with HIV-1 positive sera” value (Gnann et al., 22 HIV-1 positive sera) was “not immunoreactive with any of the 22 HIV-1 positive sera tested”.

Consider “SGKLICTTAVPWNAS [short synthetic peptide covering residues 606 to 620 of gp 41 (HIV-1), Ser. No. 120,027]”, for which, under “U.S. Ser. No. 120,027, seronegative specimens correctly identified”, the specificity was 63/63. The sensitivity (U.S. Ser. No. 120,027, six of 57 confirmed positive not detected) is on record as 89%.
